Results taken from article PMC8819291, “Adaptively evolved human oral actinomyces‐sourced defensins show therapeutic potential” (EMBO Molecular Medicine, 2021).
Where a SMILES comes first, the peptide text is derived from it. Bridges are numbered along the chain shown (N, C = ends).

How the values were obtained:
[1] = molecular target: Kv1.5 (Homo sapiens, UniProt P22460); conditions: 100 μM AMSIN
Experimental: (§1) For the expression of Nav1.5, Kv1.4, Kv1.5, Kv2.1, Kv4.3, and hERG in Xenopus oocytes, the linearized plasmids were transcribed using the T7 or SP6 mMESSAGE‐mMACHINE transcription kit (Ambion). The harvesting of stage V–VI oocytes from an anesthetized female Xenopus laevis frog was previously described (Zhu et al, [2020]). Oocytes were injected with 50 nl of cRNA at a concentration of 1 ng/nl using a micro‐injector (Drummond Scientific, USA). The oocytes were incubated in a solution containing (in mM): NaCl, 96; KCl, 2; CaCl2, 1.8; MgCl2, 2 and HEPES, 5 (pH 7.4), supplemented with 50 mg/l gentamycin sulfate. Two‐electrode voltage‐clamp recordings were performed at room temperature (18–22°C) using a Geneclamp 500 amplifier (Axon Instruments, USA) controlled by a pClamp data acquisition system (Axon Instruments, USA). Whole‐cell currents from oocytes were recorded 1–4 days after injection. Bath solution composition was (in mM): NaCl, 96; KCl, 2; CaCl2, 1.8; MgCl2, 2 and HEPES, 5 (pH 7.4). Voltage and current electrodes were filled with 3 M KCl. Resistances of both electrodes were kept between 0.7 and 1.5 M Ω. Elicited currents were sampled at 1 kHz and filtered at 0.5 kHz (for potassium currents) or sampled at 20 kHz and filtered at 2 kHz (for sodium currents) using a four‐pole low‐pass Bessel filter. […] Current traces of hERG channels were elicited by applying a +40 mV prepulse for 2 s followed by a step to −120 mV for 2 s.

[2] = molecular target: Nav1.5 (Homo sapiens, UniProt Q14524); conditions: 100 μM AMSIN
Nav1.5, sequence (Q14524 whole entry): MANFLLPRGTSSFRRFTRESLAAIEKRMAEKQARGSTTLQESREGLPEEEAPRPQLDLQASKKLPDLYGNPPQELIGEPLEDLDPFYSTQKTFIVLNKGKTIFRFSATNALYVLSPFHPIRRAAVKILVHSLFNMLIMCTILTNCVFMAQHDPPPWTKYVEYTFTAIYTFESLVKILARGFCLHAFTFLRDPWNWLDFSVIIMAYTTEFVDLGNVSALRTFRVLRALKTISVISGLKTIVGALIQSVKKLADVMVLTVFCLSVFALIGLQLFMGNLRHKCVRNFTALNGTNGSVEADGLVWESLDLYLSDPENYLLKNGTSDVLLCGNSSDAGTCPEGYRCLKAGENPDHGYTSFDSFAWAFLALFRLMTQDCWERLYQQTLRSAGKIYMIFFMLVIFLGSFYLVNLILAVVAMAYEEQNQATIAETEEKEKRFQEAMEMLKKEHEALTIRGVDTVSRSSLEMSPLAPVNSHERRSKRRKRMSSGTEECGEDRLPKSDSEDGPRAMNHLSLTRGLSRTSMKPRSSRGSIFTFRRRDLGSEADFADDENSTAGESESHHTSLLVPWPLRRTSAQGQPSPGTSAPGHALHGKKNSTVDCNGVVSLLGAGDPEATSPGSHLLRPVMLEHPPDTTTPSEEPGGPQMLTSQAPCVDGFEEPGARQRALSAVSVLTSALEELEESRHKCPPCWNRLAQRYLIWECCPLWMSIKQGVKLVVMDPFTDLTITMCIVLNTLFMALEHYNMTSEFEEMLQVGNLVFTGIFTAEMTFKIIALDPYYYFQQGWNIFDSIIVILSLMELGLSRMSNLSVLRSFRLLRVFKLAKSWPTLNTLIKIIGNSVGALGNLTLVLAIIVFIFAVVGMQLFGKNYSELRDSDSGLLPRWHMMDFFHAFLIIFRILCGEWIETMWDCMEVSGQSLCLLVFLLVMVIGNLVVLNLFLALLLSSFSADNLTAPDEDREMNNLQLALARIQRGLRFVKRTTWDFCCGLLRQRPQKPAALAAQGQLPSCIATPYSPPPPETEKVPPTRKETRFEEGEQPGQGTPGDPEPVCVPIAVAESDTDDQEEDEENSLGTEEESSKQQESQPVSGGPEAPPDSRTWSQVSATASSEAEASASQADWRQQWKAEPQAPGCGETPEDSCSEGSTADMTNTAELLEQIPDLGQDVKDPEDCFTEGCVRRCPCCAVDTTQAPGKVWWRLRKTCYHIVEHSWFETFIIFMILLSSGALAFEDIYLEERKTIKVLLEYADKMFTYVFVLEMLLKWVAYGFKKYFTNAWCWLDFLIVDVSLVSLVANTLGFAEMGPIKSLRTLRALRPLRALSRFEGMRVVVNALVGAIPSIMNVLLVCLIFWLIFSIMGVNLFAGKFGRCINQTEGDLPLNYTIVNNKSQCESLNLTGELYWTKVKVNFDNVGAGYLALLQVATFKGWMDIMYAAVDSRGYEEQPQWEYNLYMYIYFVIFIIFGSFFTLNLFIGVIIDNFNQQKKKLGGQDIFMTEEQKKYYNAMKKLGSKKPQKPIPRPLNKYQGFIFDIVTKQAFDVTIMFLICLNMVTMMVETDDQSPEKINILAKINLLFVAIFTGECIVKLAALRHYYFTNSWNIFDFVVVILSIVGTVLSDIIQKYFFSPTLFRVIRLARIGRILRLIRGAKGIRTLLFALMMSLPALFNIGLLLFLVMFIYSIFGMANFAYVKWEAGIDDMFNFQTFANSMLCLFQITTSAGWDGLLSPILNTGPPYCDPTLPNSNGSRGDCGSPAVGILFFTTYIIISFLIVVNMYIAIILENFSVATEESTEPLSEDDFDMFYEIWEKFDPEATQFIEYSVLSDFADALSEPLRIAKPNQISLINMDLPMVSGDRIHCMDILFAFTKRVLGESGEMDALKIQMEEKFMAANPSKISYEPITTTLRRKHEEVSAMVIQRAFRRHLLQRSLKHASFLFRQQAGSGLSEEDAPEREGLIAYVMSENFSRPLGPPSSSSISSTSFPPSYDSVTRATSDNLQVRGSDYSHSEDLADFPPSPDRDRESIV
Experimental: as §1

[3] = molecular target: Kv1.4 (Homo sapiens, UniProt P22459); conditions: 100 μM AMSIN
Kv1.4, sequence (P22459 whole entry): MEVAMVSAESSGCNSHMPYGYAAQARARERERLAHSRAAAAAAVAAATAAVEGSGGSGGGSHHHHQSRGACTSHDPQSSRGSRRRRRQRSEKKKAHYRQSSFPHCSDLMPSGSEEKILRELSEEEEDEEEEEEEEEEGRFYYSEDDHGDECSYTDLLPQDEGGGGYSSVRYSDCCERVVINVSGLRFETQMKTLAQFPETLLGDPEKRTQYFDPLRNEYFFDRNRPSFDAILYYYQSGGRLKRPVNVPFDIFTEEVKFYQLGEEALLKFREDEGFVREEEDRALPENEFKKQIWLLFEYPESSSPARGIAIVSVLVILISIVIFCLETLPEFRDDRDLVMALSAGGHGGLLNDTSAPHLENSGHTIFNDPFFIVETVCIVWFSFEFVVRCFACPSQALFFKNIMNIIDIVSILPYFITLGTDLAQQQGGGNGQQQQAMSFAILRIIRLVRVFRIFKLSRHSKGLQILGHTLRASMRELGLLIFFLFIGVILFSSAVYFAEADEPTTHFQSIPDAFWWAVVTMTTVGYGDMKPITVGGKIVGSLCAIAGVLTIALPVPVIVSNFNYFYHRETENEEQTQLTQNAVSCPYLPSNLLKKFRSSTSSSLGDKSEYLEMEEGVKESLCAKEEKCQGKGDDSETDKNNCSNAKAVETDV
Experimental: as §1

[4] = molecular target: hERG (Homo sapiens, UniProt Q12809); conditions: 100 μM AMSIN
hERG, sequence (Q12809 whole entry): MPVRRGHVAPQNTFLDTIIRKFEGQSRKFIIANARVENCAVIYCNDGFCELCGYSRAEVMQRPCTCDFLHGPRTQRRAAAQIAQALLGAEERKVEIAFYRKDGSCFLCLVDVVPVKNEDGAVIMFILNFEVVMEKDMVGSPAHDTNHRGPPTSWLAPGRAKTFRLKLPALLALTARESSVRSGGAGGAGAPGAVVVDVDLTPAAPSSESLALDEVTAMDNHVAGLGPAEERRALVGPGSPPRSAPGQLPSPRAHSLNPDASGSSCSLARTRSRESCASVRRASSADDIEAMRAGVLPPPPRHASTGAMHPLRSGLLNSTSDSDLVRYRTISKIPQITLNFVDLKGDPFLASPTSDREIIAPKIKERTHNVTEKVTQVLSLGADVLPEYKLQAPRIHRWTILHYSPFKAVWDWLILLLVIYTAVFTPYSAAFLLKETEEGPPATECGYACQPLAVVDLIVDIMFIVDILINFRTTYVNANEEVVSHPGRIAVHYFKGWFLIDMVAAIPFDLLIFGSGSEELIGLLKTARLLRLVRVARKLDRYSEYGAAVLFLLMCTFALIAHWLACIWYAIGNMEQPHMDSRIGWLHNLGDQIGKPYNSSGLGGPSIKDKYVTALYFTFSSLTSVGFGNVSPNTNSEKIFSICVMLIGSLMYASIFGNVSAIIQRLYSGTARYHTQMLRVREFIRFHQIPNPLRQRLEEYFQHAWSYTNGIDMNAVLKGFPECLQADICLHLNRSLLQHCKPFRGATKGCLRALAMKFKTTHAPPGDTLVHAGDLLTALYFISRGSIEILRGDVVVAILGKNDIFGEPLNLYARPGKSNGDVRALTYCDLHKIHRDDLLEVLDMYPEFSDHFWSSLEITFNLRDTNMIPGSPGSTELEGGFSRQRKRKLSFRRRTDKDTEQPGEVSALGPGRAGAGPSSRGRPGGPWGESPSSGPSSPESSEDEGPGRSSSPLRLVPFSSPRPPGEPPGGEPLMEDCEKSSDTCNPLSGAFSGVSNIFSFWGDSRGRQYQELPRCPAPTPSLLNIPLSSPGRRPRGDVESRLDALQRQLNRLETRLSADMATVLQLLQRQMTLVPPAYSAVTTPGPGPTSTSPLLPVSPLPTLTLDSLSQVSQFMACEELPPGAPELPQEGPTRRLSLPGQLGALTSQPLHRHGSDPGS
Experimental: as §1

[5] = molecular target: Kv2.1 (Homo sapiens, UniProt Q14721); conditions: 100 μM AMSIN
Experimental: as §1

[6] = molecular target: Kv4.3 (Homo sapiens, UniProt Q9UK17); conditions: 100 μM AMSIN
Kv4.3, sequence (Q9UK17 whole entry): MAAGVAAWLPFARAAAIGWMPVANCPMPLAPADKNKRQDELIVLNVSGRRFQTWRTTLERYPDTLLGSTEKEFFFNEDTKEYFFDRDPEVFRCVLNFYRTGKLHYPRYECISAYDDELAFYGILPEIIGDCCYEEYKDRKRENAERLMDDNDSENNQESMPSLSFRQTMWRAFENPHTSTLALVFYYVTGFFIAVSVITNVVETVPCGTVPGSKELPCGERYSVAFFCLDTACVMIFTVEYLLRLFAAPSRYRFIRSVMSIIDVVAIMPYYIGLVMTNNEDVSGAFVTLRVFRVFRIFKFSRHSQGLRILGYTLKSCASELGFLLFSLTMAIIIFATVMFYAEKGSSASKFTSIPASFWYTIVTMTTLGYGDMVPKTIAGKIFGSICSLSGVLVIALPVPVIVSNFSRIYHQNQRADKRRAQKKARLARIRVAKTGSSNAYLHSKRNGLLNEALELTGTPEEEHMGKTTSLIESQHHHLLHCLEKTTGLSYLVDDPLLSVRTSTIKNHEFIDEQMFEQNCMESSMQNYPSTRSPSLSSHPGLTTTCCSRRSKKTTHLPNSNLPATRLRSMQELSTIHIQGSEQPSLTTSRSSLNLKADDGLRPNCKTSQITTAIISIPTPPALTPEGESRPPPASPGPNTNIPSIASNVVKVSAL
Experimental: as §1

[7] = system: HL‐60 cells; experiment: Peptide-induced MCP-1 release (ELISA); format: cell-based, human; conditions: 24 h
Experimental: A549 and HL‐60 cells were purchased from the Cell Resource Center of the Chinese Academy of Medical Sciences (Beijing, China). They were tested for mycoplasma contamination with the Mycoplasma Detection Kit (Solarbio, China) and only negative cultures were used in our experiments. The cells were cultured in complete Dulbecco’s Modified Eagle Medium (DMEM) supplemented with 10% fetal bovine serum (FBS), penicillin (100 units/ml), and streptomycin ([…]) at 37°C in 5% CO2. The culture medium was changed every 2 days. Cells were passaged every 4–5 days with 0.25% trypsin (Gibco, USA). For enzyme‐linked immunosorbent assay (ELISA) (Hara et al, [2008]), A549 or HL‐60 cells were seeded in six‐well plates at a density of 1 × 10^5 cells/well and were incubated at 37°C in 5% CO2 overnight. Medium was aspirated and replaced with fresh complete DMEM supplemented with 10% FBS or serum‐free medium, both containing different concentrations of polypeptides for 24 h. Then, the supernatants were harvested for quantification of the IL‐8 amount in A549 by the Human CXCL8/IL‐8 Quantikine ELISA Kit (R&D Systems Inc., Minneapolis, MN, USA) and the MCP‐1 amount in HL‐60 by the Human MCP‐1 ELISA Kit (Boster Biological Technology Co., Ltd, Wuhan, China) as per the manufactures’ instructions.

[8] = system: Methicillin‐resistant Staphylococcus aureus P1386; experiment: Inhibition-zone assay (lethal concentration); format: cell-based; conditions: Broth Medium, 37°C
Source text: (§2) Bacterial media used here included: Luria‐Bertani (LB) medium, THY medium (30 g Todd Hewitt broth and 5 g Yeast extract per liter), and tryptic soy broth (TSB) (Oxoid, Basingstoke, UK); Broth medium and brain–heart infusion (BHI) medium (Beijing Landbridge technology Limited by Share Ltd., Beijing, China); Potato dextrose (PD) medium (self‐prepared).
(§3) In brief, an overnight bacterial culture from a single colony was inoculated into fresh medium and grew to late log‐phase. A 10‐μl aliquot of each culture was diluted in 6‐ml pre‐heated medium containing 0.8% agar. The mixture was spread on a 9‐cm Petri dish, giving a depth of 1 mm. After settling, 3‐mm wells were punched in the plate and then 2‐μl peptide samples of different concentrations were added to each well. The agar plates were incubated overnight at indicated temperatures (Table EV4). A lethal concentration (C L ) was calculated from a plot of d^2 against log n, where d is the diameter (in cm) and n is the amount of sample applied in the well (in nmol). The plot is linear, and thus C L can be calculated from the slope (k) and the intercept (m) of this plot.

[9] = system: Streptococcus pneumoniae ST556 (StrR); experiment: Inhibition-zone assay (lethal concentration); format: cell-based; conditions: streptomycin‐resistant strain; THY, 5% CO2, 37°C
Source text: as §2, §3

[10] = system: penicillin‐resistant Staphylococcus epidermidis P1389; experiment: Inhibition-zone assay (lethal concentration); format: cell-based; conditions: Broth Medium, 37°C
Source text: as §2, §3

Kv1.5, sequence (P22460 whole entry): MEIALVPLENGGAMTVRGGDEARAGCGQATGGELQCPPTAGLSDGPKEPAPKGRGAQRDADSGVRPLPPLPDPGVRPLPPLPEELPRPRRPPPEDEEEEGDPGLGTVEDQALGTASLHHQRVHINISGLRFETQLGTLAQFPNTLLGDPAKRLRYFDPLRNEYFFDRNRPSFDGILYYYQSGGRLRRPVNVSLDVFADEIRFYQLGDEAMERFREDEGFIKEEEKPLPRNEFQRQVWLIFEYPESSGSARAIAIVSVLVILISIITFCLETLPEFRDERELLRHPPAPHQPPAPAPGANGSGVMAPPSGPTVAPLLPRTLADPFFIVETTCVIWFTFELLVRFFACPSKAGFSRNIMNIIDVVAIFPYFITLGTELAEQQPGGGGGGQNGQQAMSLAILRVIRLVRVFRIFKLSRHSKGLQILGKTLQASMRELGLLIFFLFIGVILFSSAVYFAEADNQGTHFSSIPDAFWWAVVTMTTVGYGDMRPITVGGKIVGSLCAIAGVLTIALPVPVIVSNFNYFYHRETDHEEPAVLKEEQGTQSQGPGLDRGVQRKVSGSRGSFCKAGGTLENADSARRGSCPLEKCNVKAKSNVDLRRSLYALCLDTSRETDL

CC[C@H](C)[C@@H]1NC(=O)[C@H](CCCCN)NC(=O)CNC(=O)[C@H](CCCNC(=N)N)NC(=O)[C@@H]2CSSC[C@H](NC(=O)CNC(=O)[C@H](Cc3ccccc3)NC(=O)CN)C(=O)N3CCC[C@H]3C(=O)N[C@@H](Cc3c[nH]c4ccccc34)C(=O)N[C@@H](CC(N)=O)C(=O)N[C@@H](C)C(=O)N[C@@H](Cc3ccc(O)cc3)C(=O)N[C@@H](CCC(=O)O)C(=O)N[C@H]3CSSC[C@H](NC(=O)[C@H]([C@@H](C)O)NC(=O)[C@H](CCC(N)=O)NC(=O)[C@H](CCCNC(=N)N)NC1=O)C(=O)N[C@@H](Cc1c[nH]cn1)C(=O)N[C@H](C(=O)N[C@@H](Cc1ccc(O)cc1)C(=O)O)CSSC[C@H](NC(=O)[C@H](Cc1c[nH]cn1)NC(=O)[C@H](CCCNC(=N)N)NC(=O)[C@H](CC(=O)O)NC3=O)C(=O)N[C@@H](C(C)C)C(=O)N[C@@H](CO)C(=O)N[C@@H](CCCCN)C(=O)NCC(=O)N[C@@H](Cc1ccc(O)cc1)C(=O)N[C@@H]([C@@H](C)O)C(=O)NCC(=O)NCC(=O)N[C@@H](CC(N)=O)C(=O)N2 [AMSIN] (H-GFGCPWNAYECDRHCVSKGYTGGNCRGKIRQTCHCY-OH; disulfide 4-25, 11-33, 15-35; N-terminus and C-terminus assumed)
Effect on channel current [1]: no any effect
Effect on channel current [2]: no any effect
Effect on channel current [3]: no any effect
Effect on channel current [4]: no any effect
Effect on channel current [5]: no any effect
Effect on channel current [6]: no any effect
MCP-1 ([7]; FBS-containing medium, 25 μg/mL, replicate 1): 380 pg/mL
MCP-1 ([7]; FBS-containing medium, 25 μg/mL, replicate 2): 485 pg/mL
MCP-1 ([7]; FBS-containing medium, 25 μg/mL, replicate 3): 359 pg/mL
MCP-1 ([7]; FBS-containing medium, 50 μg/mL, replicate 1): 453 pg/mL
MCP-1 ([7]; FBS-containing medium, 50 μg/mL, replicate 2): 523 pg/mL
MCP-1 ([7]; FBS-containing medium, 50 μg/mL, replicate 3): 432 pg/mL
MCP-1 ([7]; FBS-containing medium, 100 μg/mL, replicate 1): 419 pg/mL
MCP-1 ([7]; FBS-containing medium, 100 μg/mL, replicate 2): 423 pg/mL
MCP-1 ([7]; FBS-containing medium, 100 μg/mL, replicate 3): 398 pg/mL
MCP-1 ([7]; Serum-Free medium, 25 μg/mL, replicate 1): 393 pg/mL
MCP-1 ([7]; Serum-Free medium, 25 μg/mL, replicate 2): 431 pg/mL
MCP-1 ([7]; Serum-Free medium, 25 μg/mL, replicate 3): 372 pg/mL
MCP-1 ([7]; Serum-Free medium, 50 μg/mL, replicate 1): 447 pg/mL
MCP-1 ([7]; Serum-Free medium, 50 μg/mL, replicate 2): 450 pg/mL
MCP-1 ([7]; Serum-Free medium, 50 μg/mL, replicate 3): 426 pg/mL
MCP-1 ([7]; Serum-Free medium, 100 μg/mL, replicate 1): 418 pg/mL
MCP-1 ([7]; Serum-Free medium, 100 μg/mL, replicate 2): 427 pg/mL
MCP-1 ([7]; Serum-Free medium, 100 μg/mL, replicate 3): 397 pg/mL
Lethal concentration (C L) [8]: 0.74 µM
Lethal concentration (C L) [9]: < 0.14 µM
Lethal concentration (C L) [10]: 1.14 µM
